Values quoted from earlier work as cited in paper PMC8674003 (CPT: Pharmacometrics & Systems Pharmacology, 2021).
Positions of bridges follow the written chain, without caps; N, C: chain ends. Non-standard residues stand in square brackets, D forms with d. Residues, ends and D or L forms follow the SMILES beside them. *: point of attachment. X1 = CC[C@H](C)CCCCC(=O)*; Dab = NCC[C@H](N)C(=O)O

Legend:
[1] = components administered individually to Sprague-Dawley rats
[2] = IV
[3] = M4 (Wang et al.), 2 CMT, Phoenix NLME (7.0), 46 patients

| SMILES | Plasma protein binding, B1 compared with B2 [1] | Q, intercompartmental clearance [2, 3] [L/h] | V1, typical volume of central compartment [2, 3] [L] | V2, typical volume of peripheral compartment [2, 3] [L] | V, volume of distribution ([2]; M7 (Yu et al.), 1 CMT, NONMEM (7.4), 32 patients) [L] |
| --- | --- | --- | --- | --- | --- |
| CC[C@H](C)CCCCC(=O)N[C@@H](CCN)C(=O)N[C@H](C(=O)N[C@@H](CCN)C(=O)N[C@H]1CCNC(=O)[C@H]([C@@H](C)O)NC(=O)[C@H](CCN)NC(=O)[C@H](CCN)NC(=O)[C@H](CC(C)C)NC(=O)[C@@H](Cc2ccccc2)NC(=O)[C@H](CCN)NC1=O)[C@@H](C)O [polymyxin B1] (X1-[Dab]T[Dab][Dab][Dab][dF]L[Dab][Dab]T; lactam 4-C) | higher compared with B2 | – | – | – | – |
| CC[C@H](C)CCCCC(=O)N[C@@H](CCN)C(=O)N[C@H](C(=O)N[C@@H](CCN)C(=O)N[C@H]1CCNC(=O)[C@H]([C@@H](C)O)NC(=O)[C@H](CCN)NC(=O)[C@H](CCN)NC(=O)[C@H](CC(C)C)NC(=O)[C@@H](Cc2ccccc2)NC(=O)[C@H](CCN)NC1=O)[C@@H](C)O [polymyxin B, Polymyxin B] (X1-[Dab]T[Dab][Dab][Dab][dF]L[Dab][Dab]T; lactam 4-C) | – | 13.52 | 6.22 | 11.92 | 20.5 |
